# From PubChem BioAssay (NCI)
#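 The compound was tested at five concentrations on cells cultured in 96-well plates, with a 48-hour exposure period. The concentration for full growth arrest is given as TGI.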
# Columns and labels:
# Assay in all cases: DTP human tumour cell line panel, 48 h
# SF-539 CNS = tested on: SF-539 CNS
# HL-60(TB) leukemia = tested on: HL-60(TB) leukemia
# CCRF-CEM leukemia = tested on: CCRF-CEM leukemia
# UO-31 renal = tested on: UO-31 renal
# SN12C renal = tested on: SN12C renal
# NCI-H23 lung = tested on: NCI-H23 lung
# SK-MEL-5 melanoma = tested on: SK-MEL-5 melanoma
# OVCAR-5 ovarian = tested on: OVCAR-5 ovarian
# T-47D breast = tested on: T-47D breast
# EKVX NSCLC = tested on: EKVX NSCLC
# KM12 colon = tested on: KM12 colon
# UACC-62 melanoma = tested on: UACC-62 melanoma
# RXF 393 renal = tested on: RXF 393 renal
# MDA-MB-231 breast = tested on: MDA-MB-231 breast
# HCT-15 colon = tested on: HCT-15 colon
# RPMI-8226 leukemia = tested on: RPMI-8226 leukemia
# OVCAR-8 ovarian = tested on: OVCAR-8 ovarian
# SK-OV-3 ovarian = tested on: SK-OV-3 ovarian
# NCI/ADR-RES ovarian = tested on: NCI/ADR-RES ovarian
# 786-0 renal = tested on: 786-0 renal
# SNB-19 CNS = tested on: SNB-19 CNS
# OVCAR-3 ovarian = tested on: OVCAR-3 ovarian
# SK-MEL-2 melanoma = tested on: SK-MEL-2 melanoma
# HOP-92 NSCLC = tested on: HOP-92 NSCLC
# NCI-H522 lung = tested on: NCI-H522 lung
# MOLT-4 leukemia = tested on: MOLT-4 leukemia
# SF-268 CNS = tested on: SF-268 CNS
# SR leukemia = tested on: SR leukemia
# MDA-MB-435 = tested on: MDA-MB-435
# NCI-H226 lung = tested on: NCI-H226 lung
# TK-10 renal = tested on: TK-10 renal
# A498 renal = tested on: A498 renal
# MALME-3M melanoma = tested on: MALME-3M melanoma
# ACHN renal = tested on: ACHN renal
# UACC-257 melanoma = tested on: UACC-257 melanoma
# PC-3 prostate = tested on: PC-3 prostate
# SF-295 CNS = tested on: SF-295 CNS
# OVCAR-4 ovarian = tested on: OVCAR-4 ovarian
# HT29 colon = tested on: HT29 colon
# MDA-N = tested on: MDA-N
# SW-620 colon = tested on: SW-620 colon
# DU-145 prostate = tested on: DU-145 prostate
# NCI-H460 lung = tested on: NCI-H460 lung
# K-562 leukemia = tested on: K-562 leukemia
# HCC-2998 colon = tested on: HCC-2998 colon
# MCF7 breast = tested on: MCF7 breast
# LOX IMVI melanoma = tested on: LOX IMVI melanoma
# HOP-62 NSCLC = tested on: HOP-62 NSCLC
# HCT-116 colon = tested on: HCT-116 colon
# U251 CNS = tested on: U251 CNS
# M14 melanoma = tested on: M14 melanoma
# CAKI-1 renal = tested on: CAKI-1 renal
# SNB-75 CNS = tested on: SNB-75 CNS
# BT-549 breast = tested on: BT-549 breast
# HS 578T breast = tested on: HS 578T breast
# SK-MEL-28 melanoma = tested on: SK-MEL-28 melanoma
# COLO 205 colon = tested on: COLO 205 colon
# A549 NSCLC = tested on: A549 NSCLC
# IGROV1 ovarian = tested on: IGROV1 ovarian
compound,measurement,setting,value
CCOC(=O)c1ccc(-c2cccs2)[nH]1,TGI,SF-539 CNS,> 100 µM
same,TGI,HL-60(TB) leukemia,> 100 µM
same,TGI,CCRF-CEM leukemia,> 100 µM
same,TGI,UO-31 renal,> 89 µM
same,TGI,SN12C renal,> 100 µM
same,TGI,NCI-H23 lung,> 100 µM
same,TGI,SK-MEL-5 melanoma,> 100 µM
same,TGI,OVCAR-5 ovarian,> 100 µM
same,TGI,T-47D breast,> 92.1 µM
same,TGI,EKVX NSCLC,> 100 µM
same,TGI,KM12 colon,> 100 µM
same,TGI,UACC-62 melanoma,> 100 µM
same,TGI,RXF 393 renal,> 100 µM
same,TGI,MDA-MB-231 breast,> 100 µM
same,TGI,HCT-15 colon,> 31.6 µM
same,TGI,RPMI-8226 leukemia,> 100 µM
same,TGI,OVCAR-8 ovarian,> 100 µM
same,TGI,SK-OV-3 ovarian,> 100 µM
same,TGI,NCI/ADR-RES ovarian,> 100 µM
same,TGI,786-0 renal,> 100 µM
same,TGI,SNB-19 CNS,> 100 µM
same,TGI,OVCAR-3 ovarian,> 100 µM
same,TGI,SK-MEL-2 melanoma,> 100 µM
same,TGI,HOP-92 NSCLC,> 76.5 µM
same,TGI,NCI-H522 lung,> 100 µM
same,TGI,MOLT-4 leukemia,> 100 µM
same,TGI,SF-268 CNS,> 100 µM
same,TGI,SR leukemia,> 100 µM
same,TGI,MDA-MB-435,> 100 µM
same,TGI,NCI-H226 lung,> 100 µM
same,TGI,TK-10 renal,> 100 µM
same,TGI,A498 renal,> 100 µM
same,TGI,MALME-3M melanoma,> 100 µM
same,TGI,ACHN renal,> 100 µM
same,TGI,UACC-257 melanoma,> 100 µM
same,TGI,PC-3 prostate,> 100 µM
same,TGI,SF-295 CNS,> 100 µM
same,TGI,OVCAR-4 ovarian,> 100 µM
same,TGI,HT29 colon,> 100 µM
same,TGI,MDA-N,> 100 µM
same,TGI,SW-620 colon,> 100 µM
same,TGI,DU-145 prostate,> 100 µM
same,TGI,NCI-H460 lung,> 100 µM
same,TGI,K-562 leukemia,> 100 µM
same,TGI,HCC-2998 colon,> 100 µM
same,TGI,MCF7 breast,> 100 µM
same,TGI,LOX IMVI melanoma,> 100 µM
same,TGI,HOP-62 NSCLC,> 100 µM
same,TGI,HCT-116 colon,> 100 µM
same,TGI,U251 CNS,> 100 µM
same,TGI,M14 melanoma,> 100 µM
same,TGI,CAKI-1 renal,> 100 µM
same,TGI,SNB-75 CNS,> 100 µM
same,TGI,BT-549 breast,> 100 µM
same,TGI,HS 578T breast,> 100 µM
same,TGI,SK-MEL-28 melanoma,> 100 µM
same,TGI,COLO 205 colon,> 100 µM
same,TGI,A549 NSCLC,> 100 µM
same,TGI,IGROV1 ovarian,> 100 µM
O=C1CSC(c2cccc(Oc3ccccc3)c2)N1c1cc(Cl)ccc1Cl (stereo unspecified),TGI,SF-539 CNS,35.6 µM
same,TGI,HL-60(TB) leukemia,> 100 µM
same,TGI,CCRF-CEM leukemia,> 100 µM
same,TGI,UO-31 renal,43.3 µM
same,TGI,SN12C renal,39.1 µM
same,TGI,NCI-H23 lung,98.2 µM
same,TGI,SK-MEL-5 melanoma,31.3 µM
same,TGI,OVCAR-5 ovarian,76.9 µM
same,TGI,T-47D breast,89.6 µM
same,TGI,EKVX NSCLC,80.9 µM
same,TGI,KM12 colon,79.2 µM
same,TGI,UACC-62 melanoma,31.5 µM
same,TGI,RXF 393 renal,40.3 µM
same,TGI,MDA-MB-231 breast,43.3 µM
same,TGI,HCT-15 colon,58.6 µM
same,TGI,OVCAR-8 ovarian,62.5 µM
same,TGI,SK-OV-3 ovarian,> 100 µM
same,TGI,NCI/ADR-RES ovarian,77.4 µM
same,TGI,786-0 renal,36.9 µM
same,TGI,SNB-19 CNS,56.6 µM
same,TGI,OVCAR-3 ovarian,51.2 µM
same,TGI,SK-MEL-2 melanoma,36.3 µM
same,TGI,HOP-92 NSCLC,42.7 µM
same,TGI,NCI-H522 lung,41.1 µM
same,TGI,MOLT-4 leukemia,57.8 µM
same,TGI,SF-268 CNS,39.5 µM
same,TGI,SR leukemia,44 µM
same,TGI,MDA-MB-435,40.2 µM
same,TGI,NCI-H226 lung,46.7 µM
same,TGI,TK-10 renal,55.1 µM
same,TGI,A498 renal,70.7 µM
same,TGI,MALME-3M melanoma,57.6 µM
same,TGI,ACHN renal,49.1 µM
same,TGI,UACC-257 melanoma,50.1 µM
same,TGI,PC-3 prostate,52.5 µM
same,TGI,SF-295 CNS,55.3 µM
same,TGI,OVCAR-4 ovarian,60.8 µM
same,TGI,HT29 colon,50.5 µM
same,TGI,MDA-N,35.7 µM
same,TGI,SW-620 colon,70.5 µM
same,TGI,DU-145 prostate,> 100 µM
same,TGI,NCI-H460 lung,43.2 µM
same,TGI,K-562 leukemia,50.1 µM
same,TGI,HCC-2998 colon,28.6 µM
same,TGI,MCF7 breast,23 µM
same,TGI,LOX IMVI melanoma,43.1 µM
same,TGI,HOP-62 NSCLC,47.1 µM
same,TGI,HCT-116 colon,34.4 µM
same,TGI,U251 CNS,33.2 µM
same,TGI,M14 melanoma,50.5 µM
same,TGI,CAKI-1 renal,48.8 µM
same,TGI,SNB-75 CNS,62.6 µM
same,TGI,BT-549 breast,35.6 µM
same,TGI,HS 578T breast,77.7 µM
same,TGI,SK-MEL-28 melanoma,> 100 µM
same,TGI,COLO 205 colon,90.8 µM
same,TGI,A549 NSCLC,> 100 µM
